target: T1, endothelial lipase (EL) (Homo sapiens, UniProt Q9Y5X9); assay: Endothelial lipase (EL) enzymatic assay with fluorescent substrate A10070 in DMPG vesicles; type: biochemical; settings: conditioned media from HT-1080 cells overexpressing endogenous EL; 20 min preincubation at 37° C.; read-out: HLE_EL_CRC IC50
T1 construct: HT-1080 cells, which were transformed by RAGE technology (Athersys) to overexpress endogenous EL; endogenous in cells; conditioned medium used as the enzyme source
T1 sequence (Q9Y5X9 21-500): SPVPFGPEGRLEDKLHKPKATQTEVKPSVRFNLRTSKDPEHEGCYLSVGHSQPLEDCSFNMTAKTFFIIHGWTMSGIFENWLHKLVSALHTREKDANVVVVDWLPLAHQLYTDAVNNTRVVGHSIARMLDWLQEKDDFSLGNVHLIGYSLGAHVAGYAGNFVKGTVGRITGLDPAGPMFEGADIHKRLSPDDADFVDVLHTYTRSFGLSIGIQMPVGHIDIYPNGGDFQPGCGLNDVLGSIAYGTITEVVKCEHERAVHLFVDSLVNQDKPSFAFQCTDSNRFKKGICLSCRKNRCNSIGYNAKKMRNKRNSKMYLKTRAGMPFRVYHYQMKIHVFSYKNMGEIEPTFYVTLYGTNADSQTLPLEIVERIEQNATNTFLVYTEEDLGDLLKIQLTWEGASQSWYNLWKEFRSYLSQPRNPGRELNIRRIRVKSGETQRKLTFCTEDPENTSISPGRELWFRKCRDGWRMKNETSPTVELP
Description: Endothelial lipase activity was measured using a fluorescent substrate, A10070, (Invitrogen, CA) doped into an artificial vesicle containing DMPG (Avanti Polar Lipids) as the excipient. Vesicles were prepared by combining 285 uL of 1 mM DMPG in a 1:1 mixture of MeOH and CHCl3 with 15 uL of 1 mM A10070 in a 1:1 mixture of MeOH and CHCl3. The mixture was dried under nitrogen and resuspended in 150 uL of 50 mM HEPES pH 8.0 buffer containing 100 mM NaCl and 0.2 mM EDTA. The sample was allowed to sit at rt for 15 min and then was sonicated 3×4 mins on ice with a Branson Sonicator using duty cycle 1. This preparation provides vesicles with a mole fraction of 0.05 for the FRET substrate.
The enzymatic assay was measured using white, opaque 96-well half area plates. Each well contained 60 uL of assay buffer (50 mM HEPES pH 8.0, 50 mM NaCl and 1 mM CaCl2) and 2 ul of a DMSO solution containing compound of interest. Conditioned media obtained from HT-1080 cells, which were transformed by RAGE technology (Athersys) to overexpress endogenous EL, was added and the reaction was allowed to incubate for 20 min at 37° C. with gentle agitation. The reaction was started by the addition of 20 uL of a 1:4 dilution of vesicles. The final total reaction volume was 100 uL. The reaction rates were measured on a Gemini plate reader with an excitation wavelength of 488 nm and a emission of 530 nm. Readings were taken every 20 seconds for 10 min with agitation between each reading. The slope of the linear portion of the readout was used to calculate the rate of the reaction.

SMILES | IC50 [nM]
O=C(NCCCc1ccc(Cl)c(Cl)c1)C1=C(O)C(=O)N(CC2CCCCC2)C1 [Example 48, 1-(cyclohexylmethyl)-N-(3-(3,4-dichlorophenyl)propyl)-4-hydroxy-5-oxo-2,5-dihydro-1H-pyrrole-3-carboxamide] | 5.73
O=C(NCCCc1ccc(Cl)c(Cl)c1)C1=C(O)C(=O)N(CCOc2ccccc2)C1 [Example 61, N-(3-(3,4-dichlorophenyl)propyl)-4-hydroxy-5-oxo-1-(2-phenoxyethyl)-2,5-dihydro-1H-pyrrole-3-carboxamide] | 5.44
CCOC(=O)[C@H](Cc1ccccc1)N1CC(C(=O)NCCCc2ccc(Cl)c(Cl)c2)=C(O)C1=O [Example 138, (S)-ethyl 2-(4-(3-(3,4-dichlorophenyl)propylcarbamoyl)-3-hydroxy-2-oxo-2,5-dihydro-1H-pyrrol-1-yl)-3-phenylpropanoate] | 526
CCN1CC(C(=O)NCCCc2ccc(Cl)c(Cl)c2)=C(NCCCc2ccc(Cl)c(Cl)c2)C1=O [Example 179, N-(3-(3,4-dichlorophenyl)propyl)-4-(3-(3,4-dichlorophenyl)-propylamino)-1-ethyl-5-oxo-2,5-dihydro-1H-pyrrole-3-carboxamide] | 546
CCN1CC(C(=O)NCCc2ccc(S(N)(=O)=O)cc2)=C(O)C1=O [Example 181, 1-ethyl-4-hydroxy-5-oxo-N-(4-sulfamoylphenethyl)-2,5-dihydro-1H-pyrrole-3-carboxamide] | 581
CCN1CC(C(=O)NCCCN(C)c2ccccc2)=C(O)C1=O [Example 182, 1-ethyl-4-hydroxy-N-(3-(methyl(phenyl)amino)propyl)-5-oxo-2,5-dihydro-1H-pyrrole-3-carboxamide] | 3650
CC1C(C(=O)NCCCc2ccc(Cl)c(Cl)c2)=C(O)C(=O)N1CCOc1ccccc1 (centres unmarked) [Example 194, N-(3-(3,4-dichlorophenyl)propyl)-4-hydroxy-2-methyl-5-oxo-1-(2-phenoxyethyl)-2,5-dihydro-1H-pyrrole-3-carboxamide] | 466
CN1CC(C(=O)NC(CCc2ccc(Cl)c(Cl)c2)C2CC2)=C(O)C1=O (centres unmarked) [Example 232, N-(1-cyclopropyl-3-(3,4-dichlorophenyl)propyl)-4-hydroxy-1-methyl-5-oxo-2,5-dihydro-1H-pyrrole-3-carboxamide] | 5460
CN1CC(C(=O)NC(CCc2ccc(Cl)c(Cl)c2)C2CC2)=C(O)C1=O (centres unmarked) [Example 233, N-(1-cyclopropyl-3-(3,4-dichlorophenyl)propyl)-4-hydroxy-1-methyl-5-oxo-2,5-dihydro-1H-pyrrole-3-carboxamide] | 6280
C=CC(CCc1ccc(Cl)c(Cl)c1)NC(=O)C1=C(O)C(=O)N(C)C1 (centres unmarked) [Example 236, N-(5-(3,4-dichlorophenyl)pent-1-en-3-yl)-4-hydroxy-1-methyl-5-oxo-2,5-dihydro-1H-pyrrole-3-carboxamide] | 493
Cc1nc2cc(C#CCNC(=O)C3=C(O)C(=O)N(C)C3)ccc2s1 [Example 247, 4-hydroxy-1-methyl-N-(3-(2-methylbenzo[d]thiazol-5-yl)prop-2-ynyl)-5-oxo-2,5-dihydro-1H-pyrrole-3-carboxamide] | 8380
Cc1ccc(C#CCNC(=O)C2=C(O)C(=O)N(C)C2)cc1C(F)(F)F [Example 248, 4-hydroxy-1-methyl-N-(3-(4-methyl-3-(trifluoromethyl)phenyl)prop-2-ynyl)-5-oxo-2,5-dihydro-1H-pyrrole-3-carboxamide] | 4660
CC(CCc1ccc(Cl)c(Cl)c1)NC(=O)C1=C(O)C(=O)N(Cc2c[nH]nn2)C1 (centres unmarked) [Example 272, 1-((1H-1,2,3-triazol-4-yl)methyl)-N-(4-(3,4-dichlorophenyl)butan-2-yl)-4-hydroxy-5-oxo-2,5-dihydro-1H-pyrrole-3-carboxamide] | 3440
CC(CCc1ccc(Cl)c(Cl)c1)NC(=O)C1=C(O)C(=O)N(CCNC(=O)c2cc(F)cc(C(F)(F)F)c2)C1 (centres unmarked) [Example 273, N-(4-(3,4-dichlorophenyl)butan-2-yl)-1-(2-(3-fluoro-5-(trifluoromethyl)benzamido)ethyl)-4-hydroxy-5-oxo-2,5-dihydro-1H-pyrrole-3-carboxamide] | 2680
CC(=O)N(C)CCN1CC(C(=O)NC(C)CCc2ccc(Cl)c(Cl)c2)=C(O)C1=O (centres unmarked) [Example 280, N-(4-(3,4-dichlorophenyl)butan-2-yl)-4-hydroxy-1-(2-(N-methylacetamido)ethyl)-5-oxo-2,5-dihydro-1H-pyrrole-3-carboxamide] | 7300
CCN1CC(C(=O)NC[C@H]2CCc3ccccc3O2)=C(O)C1=O [Example 297, (R)-N-(chroman-2-ylmethyl)-1-ethyl-4-hydroxy-5-oxo-2,5-dihydro-1H-pyrrole-3-carboxamide] | 6520
O=C(NCCCOc1ccccc1)C1=C(O)C(=O)N(CC(F)(F)F)C1 [Example 299, 4-hydroxy-5-oxo-N-(3-phenoxypropyl)-1-(2,2,2-trifluoroethyl)-2,5-dihydro-1H-pyrrole-3-carboxamide] | 2740
C[C@@H](NC(=O)C1=C(O)C(=O)N(CC(F)(F)F)C1)c1ccc2ccccc2c1 [Example 300, (R)-4-hydroxy-N-(1-(naphthalen-2-yl)ethyl)-5-oxo-1-(2,2,2-trifluoroethyl)-2,5-dihydro-1H-pyrrole-3-carboxamide] | 3810
CC(CCc1ccc(Cl)c(Cl)c1)NC(=O)C1=C(O)C(=O)N(CCC(=O)O)C1 (centres unmarked) [Example 344, 3-(4-(4-(3,4-dichlorophenyl)butan-2-ylcarbamoyl)-3-hydroxy-2-oxo-2,5-dihydro-1H-pyrrol-1-yl) propanoic acid] | 575
CC(CCc1ccc(Cl)c(Cl)c1)NC(=O)C1=C(O)C(=O)N([C@H]2CCc3ccc(C(F)(F)F)cc32)C1 (stereo partly drawn) [Example 347, N-(4-(3,4-dichlorophenyl)butan-2-yl)-4-hydroxy-5-oxo-1-((S)-6-(trifluoromethyl)-2,3-dihydro-1H-inden-1-yl)-2,5-dihydro-1H-pyrrole-3-carboxamide] | 500
